Measured values as given in US20210255195A1, “HIGH PRECISION SPECTRAL FRET ASSAYS” (Regents of the University of Minnesota, priority 2017, published 2021).

What was measured:
[1] = system: endoplasmic reticulum calcium (D1ER sensor); experiment: D1ER cameleon calcium FRET sensor in HEK293 cells (ER calcium depletion), spectral mode; assay type: cell-based, human; details: for T50 (rate of calcium depletion): saturating drug concentrations, Hill fit of time course
Experimental: Investigation of a CFP and YFP FRET pair was evaluated with the well-known cameleon calcium sensor, in which the calmodulin-binding (M13) domain of myosin light chain kinase (MLCK) and calcium-binding domain of calmodulin are fused together, and located between two fluorescence proteins (eCFP/mCitrine). These calcium sensors have allowed cellular [Ca^2+] to be monitored more directly and reliably than using calcium-sensitive dyes. The endoplasmic reticulum-targeted cameleon sensor (D1ER) was selected because it is known to be sensitive to the SERCA inhibitors thapsigargin, CPA, and BHQ. Instead of detecting direct ligand binding, as in the 2CS studies reported above, the D1ER sensor can be used to monitor changes in ER calcium level. Upon SERCA inhibition, calcium is no longer pumped into the ER, leading to calcium depletion through various mechanisms including IP3-gated receptors and ryanodine receptors. D1ER senses these changes as calcium binding leads to a conformational rearrangement of the biosensors, increasing FRET between CFP and YFP. Therefore, calcium depletion due to SERCA inhibition is detected as a decrease in FRET.
A HEK293 stable clone with constitutive expression of the D1ER cameleon calcium sensor was generated using G418 antibiotic selection. […] Cells were harvested and dispensed into 384-well plates containing the same concentrations of thapsigargin, CPA, and BHQ, as previously evaluated with 2CS (FIG. 9). D1ER FRET was monitored only in spectral mode, because the CFP donor cannot be excited effectively by the 473 nm laser used in lifetime mode. ER calcium was monitored by repeatedly scanning the 384 well plate at three-minute intervals over a 120-minute period. […]
After resuspension and dilution in PBS, the cells were constantly and gently stirred using a magnetic stir bar at room temperature, keeping the cells in suspension and evenly distributed to avoid clumping. […] Concentration-response curves (CRC) of the FRET hits were assessed at multiple time points by repeatedly scanning the 384-well plates. […] The D1ER calcium sensor monitored changes in endoplasmic reticulum [Ca^2+] […] The methods and protocols for the D1ER cells were identical to those for 2CS, with the exception that they were evaluated only in spectral mode, and the 384-well plates containing compound CRCs were scanned every three minutes for two-hours.
SERCA malfunction can result in decreased ATPase activity and/or calcium pumping efficiency. ER calcium content was monitored over time using the endoplasmic-localized cameleon calcium FRET sensor (D1ER). […] Briefly, D1ER FRET changes were monitored over time by repeatedly (every 3 minutes) scanning a 384-well plate containing varying concentrations of the 2CS FRET hits. D1ER cells were assessed immediately after compound incubation. […]

[2] = target: two-color SERCA (2CS) biosensor (SERCA2a) (UniProt P16615); experiment: 2CS FRET biosensor in living HEK293 cells, spectral mode (spectral unmixing plate reader); assay type: cell-based, human; details: for 2CS FRET hit identification: NCC screen, reproducible and dose-dependent FRET decrease
Experimental: HEK293 cells were maintained in phenol-red-free DMEM from Gibco (Waltham, Mass.) supplemented with 2 mM GlutaMAX (Gibco), 10% fetal bovine serum (FBS) from Atlanta Biologicals (Laweranceville, Ga.), and 1 IU/mL penicillin/streptomycin (Gibco) and grown at 37° C. with 5% CO2. Stable clones expressing the FRET biosensors and corresponding donor- and acceptor-labeled control cell lines were established as described previously [3]. Briefly, cells were transfected with the recombinant DNA following established protocols lipofectaimine 3000 from Invitrogen (Carlsbad, Calif.). 48 hours post transfection the cells were placed under G418 (500 μg/mL) from Sigma (St. Louis, Mo.), antibiotic selection, and plated to allow for the growth of single colonies. Clones were isolated 2-3 weeks after transfection and antibiotic selection. […] The cell lines were expanded in T225 flasks from Corning (Corning, N.Y.), harvested by treatment with Tryple (Invitrogen), washed three times in phosphate buffer solution (PBS) with no magnesium or calcium Thermo Fischer (Waltham, Mass.)) and centrifuged at 300 g, filtered using 70 μm cell strainers (Corning), and diluted to 10^6 cells/mL using an automated countess cell counter from Invitrogen. In studies with cyan and yellow fluorescent protein biosensors, transient transfections were performed. In these studies, cells were harvested and prepared as described above, 48 hours after transfection. Cell viability was assessed using trypan blue. […]
The observed fluorescence emission spectrum F(λ) was fitted by least-squares minimization to a linear combination of component spectra
where D is donor, A is acceptor, C is cell autofluorescence, and W is water Raman, and a, b, c, d are the weighting (scalar) coefficients determined from the fit. The fitted spectrum for each well was determined using least squares minimization with Matlab (Mathworks) to solve for the scalar coefficients.
For an intramolecular FRET sensor with a 1:1 ratio of donor D and acceptor A molecules, FRET efficiency (FRET) was determined from (Eq. 10).

[3] = Water Raman spectrum of compound-only wells (compound aggregation); assay type: physicochemical; details: dose-dependent
Description: The high sensitivity of spectral mode is shown by the fluorescence signal of the water Raman spectrum.

SERCA2a = SERCA2a (Homo sapiens, UniProt P16615); details: binding to SERCA2a, literature; cited from earlier work
SERCA2a, sequence (P16615 1-997 isoform P16615-2, species assumed): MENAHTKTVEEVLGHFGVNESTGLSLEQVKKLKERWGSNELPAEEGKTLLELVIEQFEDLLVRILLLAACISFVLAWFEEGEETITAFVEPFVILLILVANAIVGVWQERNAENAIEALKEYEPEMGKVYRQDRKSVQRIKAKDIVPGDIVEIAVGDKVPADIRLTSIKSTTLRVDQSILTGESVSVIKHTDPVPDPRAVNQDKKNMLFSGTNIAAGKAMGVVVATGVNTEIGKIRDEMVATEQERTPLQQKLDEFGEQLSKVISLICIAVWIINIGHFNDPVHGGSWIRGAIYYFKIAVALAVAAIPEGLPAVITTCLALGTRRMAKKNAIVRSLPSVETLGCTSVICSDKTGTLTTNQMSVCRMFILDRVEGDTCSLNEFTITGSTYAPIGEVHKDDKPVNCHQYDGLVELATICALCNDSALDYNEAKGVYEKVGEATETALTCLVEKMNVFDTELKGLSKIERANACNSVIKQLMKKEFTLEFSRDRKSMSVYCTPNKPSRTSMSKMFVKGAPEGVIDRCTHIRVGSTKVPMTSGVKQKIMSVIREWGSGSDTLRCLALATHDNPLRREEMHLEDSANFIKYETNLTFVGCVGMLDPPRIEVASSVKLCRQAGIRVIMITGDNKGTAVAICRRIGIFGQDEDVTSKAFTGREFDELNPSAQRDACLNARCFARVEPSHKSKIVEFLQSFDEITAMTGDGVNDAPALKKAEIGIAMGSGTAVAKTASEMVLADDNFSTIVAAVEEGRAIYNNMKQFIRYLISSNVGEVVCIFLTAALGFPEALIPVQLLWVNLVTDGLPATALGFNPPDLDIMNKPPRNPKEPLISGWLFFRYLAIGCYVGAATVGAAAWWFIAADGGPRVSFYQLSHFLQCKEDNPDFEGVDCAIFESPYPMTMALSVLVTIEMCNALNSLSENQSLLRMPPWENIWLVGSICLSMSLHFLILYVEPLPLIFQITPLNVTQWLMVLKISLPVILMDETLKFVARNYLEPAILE

[4] = target: two-color SERCA (2CS) biosensor (SERCA2a) (UniProt P16615); experiment: 2CS FRET biosensor in living HEK293 cells, fluorescence lifetime mode; assay type: cell-based, human
Experimental: HEK293 cells were maintained in phenol-red-free DMEM from Gibco (Waltham, Mass.) supplemented with 2 mM GlutaMAX (Gibco), 10% fetal bovine serum (FBS) from Atlanta Biologicals (Laweranceville, Ga.), and 1 IU/mL penicillin/streptomycin (Gibco) and grown at 37° C. with 5% CO2. Stable clones expressing the FRET biosensors and corresponding donor- and acceptor-labeled control cell lines were established as described previously. Briefly, cells were transfected with the recombinant DNA following established protocols lipofectaimine 3000 from Invitrogen (Carlsbad, Calif.). 48 hours post transfection the cells were placed under G418 (500 μg/mL) from Sigma (St. Louis, Mo.), antibiotic selection, and plated to allow for the growth of single colonies. Clones were isolated 2-3 weeks after transfection and antibiotic selection. The stability of each clone was assessed by flow cytometry and confocal microscopy (data not shown). The cell lines were expanded in T225 flasks from Corning (Corning, N.Y.), harvested by treatment with Tryple (Invitrogen), washed three times in phosphate buffer solution (PBS) with no magnesium or calcium Thermo Fischer (Waltham, Mass.)) and centrifuged at 300 g, filtered using 70 μm cell strainers (Corning), and diluted to 10^6 cells/mL using an automated countess cell counter from Invitrogen. In studies with cyan and yellow fluorescent protein biosensors, transient transfections were performed. In these studies, cells were harvested and prepared as described above, 48 hours after transfection. Cell viability was assessed using trypan blue.
Cells were dispensed using a Multidrop Combi liquid dispenser from Thermo Fischer (Pittsburgh, Pa.) at a density of 10^6/mL. Compounds were diluted in DMSO and dispensed either using a Mosquito liquid handeler from TTP Labtech (Melbourn, UK) or a Mantis liquid dispenser from Formulatrix (Bedford, Mass.). The known SERCA inhibitors thapsigargin (TG, Sigma), 1,4-dihydroxy-2,5-di-tert-butylbenzene (BHQ) from Tocris (Minneapolis, Minn.), and cyclopiazonic acid (CPA, Tocris) were diluted at 50× concentrations and subsequently serially diluted in 96-well mother plates prior to liquid dispensing. […]
In its spectral unmixing plate reader (SUPR) mode, the instrument provides direct high-throughput detection of the complete fluorescence emission spectrum, (emission vs wavelength), with excitation provided by a 473 nm continuous wave laser. Spectra are recorded using a grating-based fiber optic input spectrograph equipped with linear-array CCD detector (Sony ILX511B). The recorded wavelength range in these experiments spanned the entire visible spectrum, but only the 400-700 nm range was used in the data analysis. In lifetime mode, the full nanosecond-resolved fluorescence emission waveform is acquired following excitation with a 473 nm pulsed microchip laser. […]
Fluorescence decay waveforms for lifetime determination, were detected directly as previously described. […] A full fluorescence decay waveform was detected in response to each laser pulse over a 128 ns time window, using a photomultiplier module from Hamamatsu (Cat #H10720-210), and a proprietary transient digitizer from Fluorescence Innovations (Minneapolis, Minn.). A 488 nm long-pass filter from Semrock (Rochester, N.Y.) and 517/20 bandpass emission filter (lifetime mode), were used, ensuring that only emission from the GFP donor was detected. […]

cytosolic calcium = details: literature; cited from earlier work

CC(C)(C)c1cc(O)c(C(C)(C)C)cc1O [BHQ, 1,4-dihydroxy-2,5-di-tert-butylbenzene]
T50 (rate of calcium depletion) [1]: 17.4 min

c1ccc(-c2ccc(C(c3ccccc3)n3ccnc3)cc2)cc1 (stereo not shown) [bifonazole]
2CS FRET hit identification [2]: hits

Clc1ccccc1C(c1ccccc1)(c1ccccc1)n1ccnc1 [clotrimazole]
2CS FRET hit identification [2]: hit

Clc1ccc(COC(Cn2ccnc2)c2ccc(Cl)cc2Cl)c(Cl)c1 (stereo not shown) [miconazole]
2CS FRET hit identification [2]: hits
Raman scattering, compound aggregation [3]: decreases inelastic light scattering (Raman band)
ER calcium depletion ([1]; over 120 minutes): largest amount of ER calcium depletion

C/C=C(/C)C(=O)O[C@H]1C(C)=C2[C@H]([C@@H]1OC(=O)CCCCCCC)[C@@](C)(OC(C)=O)C[C@H](OC(=O)CCC)[C@@]1(O)[C@H]2OC(=O)[C@@]1(C)O [thapsigargin]
reduction in FRET ([2]; 50 nM thapsigargin, spectral mode, average of 32 wells): 8%
Ki (SERCA2a): 2 nM
reduction in FRET efficiency ([4]; 50 nM thapsigargin, lifetime mode, versus donor-only control): 6%
2CS structural equilibrium between open and closed states ([4]; global lifetime analysis): shifts this equilibrium substantially toward the open state
2CS structural equilibrium between open and closed states ([4]; global lifetime analysis, listed as Thapsigargin): greatly increasing the population of the more open and disordered structural state
EC50 ([4]; read-out: EC50 of closed state mole fraction, global lifetime analysis, two-state model): 2.2 nM
increase in the GFP lifetime ([4]; saturating concentration, 50 nM): 200 picosecond
EC50 ([1]; Homo sapiens, HEK293, 2 h, ER calcium depletion at 120 min time point, read-out: equilibrium constant of sigmoidal D1ER FRET response): 1.97 nM
T50 (rate of calcium depletion) [1]: 9.5 min

Oc1cc(Cl)ccc1Oc1ccc(Cl)cc1Cl [triclosan]
cytosolic calcium (cytosolic calcium): increase cytosolic calcium
